Laboratory results: patent US5140014A (Abbott Laboratories, priority 1989, dated 1992)
Read-outs that look alike come from different tables or passages of the source.

Assays:
Test in all cases: in vitro antibacterial activity, agar dilution method (MIC)
Format in all cases: cell-based
Enterobacter Aerogenes = conditions: Klebsiella aerogenes, ATCC13048, strain ATCC 13048; BHI agar, 20-24 hours; read-out: MIC
Method in brief: (§1)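 Agar dilution in Brain Heart Infusion agar, usually 12 two-fold dilutions from a 2,000 ug/mL stock. Overnight BHI broth cultures were diluted 1:100 (1:10 for slow growers such as Streptococcus), and ~10^4 organisms were spotted per plate. MIC read after 20-24 h at 35°-37° C as lowest concentration giving no growth, slight haze or sparse colonies versus growth control.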

Enterococcus Faecium = conditions: Enterococcus faecium, ATCC8043, strain ATCC 8043; BHI agar, 20-24 hours; read-out: MIC
Method in brief: as §1

Providencia Stuartii = conditions: Providencia stuartii; strain CMX 640; BHI agar, 20-24 hours; read-out: MIC
Method in brief: as §1

Haemophilus Influenzae = conditions: Haemophilus influenzae, BHI agar, 20-24 hours
Method in brief: as §1

[1] = tested on: Staphylococcus Epidermidis; conditions: Staphylococcus epidermidis, strain 3519; BHI agar, 20-24 hours; read-out: MIC
Method in brief: as §1

Klebsiella Pneumoniae = conditions: Klebsiella pneumoniae, ATCC8045, strain ATCC 8045; BHI agar, 20-24 hours; read-out: MIC
Method in brief: as §1

Staphylococcus Aureus = conditions: Staphylococcus aureus, BHI agar, 20-24 hours, read-out: MIC
Method in brief: as §1

Pseudomonas Aeruginosa = conditions: Pseudomonas aeruginosa, BHI agar, 20-24 hours, read-out: MIC
Method in brief: as §1

Streptococcus Pyogenes = conditions: Streptococcus pyogenes, BHI agar, 20-24 hours, read-out: MIC
Method in brief: as §1

Micrococcus Luteus = conditions: Micrococcus luteus, BHI agar, 20-24 hours, read-out: MIC
Method in brief: as §1

Streptococcus Agalactiae = conditions: Streptococcus agalactiae, strain CMX 508; BHI agar, 20-24 hours; read-out: MIC
Method in brief: as §1

Acinetobacter Sp = conditions: Acinetobacter, strain CMX 669; BHI agar, 20-24 hours; read-out: MIC
Method in brief: as §1

Streptococcus Bovis = conditions: Streptococcus equinus, strain A5169; BHI agar, 20-24 hours
Method in brief: as §1

Pseudomonas Cepacia = conditions: Burkholderia cepacia; strain 296I; BHI agar, 20-24 hours; read-out: MIC
Method in brief: (§2)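 Agar dilution on BHI agar, typically 12 two-fold dilutions prepared from a 2,000 ug/mL stock solution. Plates were spot-inoculated with about 10^4 organisms from overnight BHI broth cultures, then incubated 20-24 h at 35°-37° C. MIC was the lowest concentration giving no growth, a slight haze or sparse isolated colonies compared with the growth control.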

Escherichia Coli = conditions: Escherichia coli, BHI agar, 20-24 hours, read-out: MIC
Method in brief: as §2

Measured: MIC

CCC1OC(=O)CC(O)C(C)C(OC2OC(C)CC(N(C)C)C2O)C(CC=O)CC(C)C(N(C)C)CCC(C)=CC1COC(C)=O (stereo not drawn) [Example 8, [9S]-23-O-Acetyl-9-deoxo-4'-deoxy-10,11-dihydro-9-N,N-dimethylamino-5-O-mycaminosyl-tylonide]
2 µg/mL: Haemophilus Influenzae; ATCC9795, strain ATCC 9795, read-out: MIC | Haemophilus Influenzae; ATCC10211, strain ATCC 10211, read-out: MIC | Haemophilus Influenzae; ATCC19418, strain ATCC 19418, read-out: MIC | Haemophilus Influenzae; ATCC43095, strain ATCC 43095, read-out: MIC | Haemophilus Influenzae; strain 503B, read-out: MIC | Haemophilus Influenzae; strain 504, read-out: MIC | Haemophilus Influenzae; strain 566A, read-out: MIC | Haemophilus Influenzae; strain 588A, read-out: MIC | Haemophilus Influenzae; strain 632A, read-out: MIC | Haemophilus Influenzae; strain 667A, read-out: MIC | Haemophilus Influenzae; strain 747C, read-out: MIC | Haemophilus Influenzae; strain DILL AMP R, read-out: MIC | Haemophilus Influenzae; strain SOL AMP R, read-out: MIC | Haemophilus Influenzae; strain SPK AMP R, read-out: MIC
25 µg/mL: Escherichia Coli; strain DC-2 | Escherichia Coli; strain KNK 437
50 µg/mL: Enterobacter Aerogenes | Klebsiella Pneumoniae | Streptococcus Pyogenes; strain 930 CONST | Escherichia Coli; strain JUHL
0.2 µg/mL: Micrococcus Luteus; ATCC9341, strain ATCC 9341 | Escherichia Coli; strain SS
6.2 µg/mL: Pseudomonas Aeruginosa; strain K799/61 | Escherichia Coli; strain H560
0.1 µg/mL: Streptococcus Bovis
3.1 µg/mL: Staphylococcus Aureus; ATCC6538P, strain ATCC 6538P | Staphylococcus Aureus; strain 45 | Staphylococcus Aureus; strain 45 RAR2 | Staphylococcus Aureus; strain 642A | Staphylococcus Aureus; strain CMX 553
0.78 µg/mL: Staphylococcus Aureus; NCTC10649, strain NCTC 10649 | Streptococcus Pyogenes; strain EES61 | Micrococcus Luteus; ATCC4698, strain ATCC 4698
0.25 µg/mL: Haemophilus Influenzae; strain 1177, read-out: MIC
0.39 µg/mL: Streptococcus Agalactiae
1.56 µg/mL: Enterococcus Faecium | [1] | Staphylococcus Aureus; strain A5177 | Streptococcus Pyogenes; strain 2548 INDUC
> 100 µg/mL: Providencia Stuartii | Pseudomonas Aeruginosa; strain A5007 | Pseudomonas Aeruginosa; strain BMH10 | Pseudomonas Aeruginosa; strain K799/WT | Pseudomonas Cepacia
8 µg/mL: Haemophilus Influenzae; strain 751
1 µg/mL: Haemophilus Influenzae; strain 519A | Haemophilus Influenzae; strain 1435
12.5 µg/mL: Acinetobacter Sp
